“And” between values parts separate entries of the source, which are not always exact repeats. Identical values can stand only once.
Tests used:
[1] = system: collagen I; test: Immunohistochemical analysis of collagen I in porcine IVD; type: in vivo; settings: pig, LA 60 mg/mL, treated vs untreated IVDs
Description: Since effects of LA on the NP in the subsequent clinical study was planned to be assessed using MRI, the third series focused on the effects of LA (0.2 mL, 60 mg/mL) on sclerotization as measured by T2-weighted MRI. In addition, effects of LA on the expression of collagen I and II were studied by immunohistochemistry (IHC). The macroscopic changes after LA at 60 mg/mL were similar to those described above. The tissue was dehydrated in graded ethanol and embedded in paraffin. Sections were cut on a microtome, dewaxed, and incubated with polyclonal primary antibodies against collagen I (Abcam 34710) or II (Abcam 34712). The antibodies were diluted 250 (collagen I) or 200 (collagen II) times in phosphate-buffered saline containing 1% bovine serum albumin. Incubation was done at room temperature for 60 min. The sections were then incubated for 30 min at room temperature with horseradish peroxidase-conjugated secondary antibodies (Mach 2 Uni HRP, Biocare Medical) and immunoreactivity was visualized using diaminobenzidine (Biocare Medical).

[2] = system: NP and disc height of patients' IVDs; test: Clinical study, T2-weighted MRI of NP intensity and disc height; type: in vivo, human; design: key to Individual scoring of change in NP intensity, Assessor No. 1 / Individual scoring of change in NP intensity, Assessor No. 2 / Individual scoring of change in NP intensity, Assessor No. 3 / Individual scoring of change in NP intensity, Assessor No. 4: 1, clear reduction; 0, no change; settings: for NP intensity change score at T2-weighted MR imaging, Mean ± SD: score 1 clear reduction, 0 no change, 4 assessors
Description: The study was a randomized, double-blinded, placebo-controlled, single ascending dose study with the primary objective to evaluate safety and tolerability following intradiscal injection of LA in Omnipaque or placebo (Omnipaque) in 15 patients with chronic discogenic low back pain. The secondary objective was to assess effects on the NP and disc height using T2-weighted MRI.
All MRI investigations were performed using the same scanner (Siemens 1.5 T Avanto) with the following exceptions: Baseline MRI for one placebo-treated patient and 2 patients given the high dose was acquired in a Siemens Symphony 1.5 T scanner while all other scans were done in the Siemens 1.5 T Avanto scanner. Also, baseline and 3 month MRI were done in the Symphony scanner while the other scans were done in the Avanto scanner in 2 placebo-treated patients and one patient treated with the high dose. T1- and T2-weighted sagittal, coronal, and transversal sections were acquired at 4 mm before and after injection of gadolinium contrast.
Disc height measured as the maximal distance between 2 adjacent endplates and Pfirrmann grade were documented at screening and they were followed throughout the study. Since the Pfirrmann criteria are not sensitive enough to detect minor changes in disc hydration, changes in intensity of the NP at T2-weighted MRI were scored by 4 assessors blind to the group assignment of the patients. The assessors were instructed to score no change as “0” and obvious reduction in intensity as “1”, regardless of time after treatment.
Changes in intensity of the NP at T2-weighted MR imaging were scored as 1, clear reduction and 0, no change. The scoring was done by 4 assessors blind to the group assignment of the patients. Reductions in disc height were observed throughout the study (Table 8).

[3] = LA concentration 30, individual patients and IVDs
[4] = LA concentration 60, individual patients and IVDs
[5] = LA concentration 120, individual patients and IVDs

Compound: CC(O)C(=O)O (centres unmarked) [LA, lactic acid]
- Collagen I immunoreactivity in the NP [1]: strongly induced
- NP intensity change score, Median ([2]; LA 30 mg/mL): 0
- Disc height change from baseline (mm) Mean ± SD ([2]; LA 30 mg/mL, 3 months): 0.3 ± 1.3 mm
- Disc height change from baseline (mm) Mean ± SD ([2]; LA 30 mg/mL, 6 months): −0.5 ± 0.7 mm
- Disc height change from baseline (mm) Mean ± SD ([2]; LA 30 mg/mL, 12 months): −0.5 ± 0.7 mm
- NP intensity change score at T2-weighted MR imaging, Mean ± SD ([2]; LA 30 mg/mL): 0.4 ± 0.5
- NP intensity change score, Median ([2]; LA 60 mg/mL): 1
- Disc height change from baseline (mm) Mean ± SD ([2]; LA 60 mg/mL, 3 months): −1.0 ± 0.7 mm
- Disc height change from baseline (mm) Mean ± SD ([2]; LA 60 mg/mL, 6 months): −0.8 ± 0.8 mm
- Disc height change from baseline (mm) Mean ± SD ([2]; LA 60 mg/mL, 12 months): −1.2 ± 0.8 mm
- NP intensity change score at T2-weighted MR imaging, Mean ± SD ([2]; LA 60 mg/mL): 1.0 ± 0.0
- NP intensity change score, Median ([2]; LA 120 mg/mL): 1
- Disc height change from baseline (mm) Mean ± SD ([2]; LA 120 mg/mL, 3 months): −1.2 ± 1.1 mm
- Disc height change from baseline (mm) Mean ± SD ([2]; LA 120 mg/mL, 6 months): −1.4 ± 1.1 mm
- Disc height change from baseline (mm) Mean ± SD ([2]; LA 120 mg/mL, 12 months): −1.8 ± 1.3 mm
- NP intensity change score at T2-weighted MR imaging, Mean ± SD ([2]; LA 120 mg/mL): 0.9 ± 0.3
- Individual scoring of change in NP intensity, Assessor No. 1 [2, 3]: 0 (2×) and 1 (2×)
- Individual scoring of change in NP intensity, Assessor No. 2 [2, 3]: 0 (3×) and 1
- Individual scoring of change in NP intensity, Assessor No. 3 [2, 3]: 0 (2×) and 1 (2×)
- Individual scoring of change in NP intensity, Assessor No. 4 [2, 3]: 0 (2×) and 1 (2×)
- Individual scoring of change in NP intensity, Assessor No. 1 [2, 4]: 1
- Individual scoring of change in NP intensity, Assessor No. 2 [2, 4]: 1
- Individual scoring of change in NP intensity, Assessor No. 3 [2, 4]: 1
- Individual scoring of change in NP intensity, Assessor No. 4 [2, 4]: 1
- Individual scoring of change in NP intensity, Assessor No. 1 [2, 5]: 1
- Individual scoring of change in NP intensity, Assessor No. 2 [2, 5]: 1 (3×) and 0 (2×)
- Individual scoring of change in NP intensity, Assessor No. 3 [2, 5]: 1
- Individual scoring of change in NP intensity, Assessor No. 4 [2, 5]: 1
- % decrease in disc height ([2]; lactic acid 30 mg/mL, 3 months): +3%
- % decrease in disc height ([2]; lactic acid 30 mg/mL, 6 months): 5%
- % decrease in disc height ([2]; lactic acid 30 mg/mL, 12 months): 5%
- % decrease in disc height ([2]; lactic acid 60 mg/mL, 3 months): 11%
- % decrease in disc height ([2]; lactic acid 60 mg/mL, 6 months): 8%
- % decrease in disc height ([2]; lactic acid 60 mg/mL, 12 months): 13%
- % decrease in disc height ([2]; lactic acid 120 mg/mL, 3 months): 11%
- % decrease in disc height ([2]; lactic acid 120 mg/mL, 6 months): 12%
- % decrease in disc height ([2]; lactic acid 120 mg/mL, 12 months): 16%
- Change in IVD width ([2]; patients, after treatment (not shown)): no change in IVD width

Reference: US20240415790A1, “A COMPOSITION FOR USE IN THE TREATMENT OF INTERVERTEBRAL DISC HERNIATION” (STAYBLE THERAPEUTICS AB, priority 2020, published 2024)
